Species on record: Rattus norvegicus
Assay: Open TG-GATES - Regimen: Daily Repeat
Assay type: toxicity, organism-based, Sprague-Dawley
Parameters: regimen Daily Repeat, gender Male, age 6 weeks
Details: in vivo, po, 0 mg/kg, route gavage, dose level Control; for APTT / Bas / Eos / Fbg / Hb / Ht / Lym / MCH / MCHC / MCV / Mono / Neu / PT / Plat / RBC / Ret / WBC: tissue Blood; for KIDNEY_L / KIDNEY_R / KIDNEY_TOTAL: tissue Kidney; for LIVER: tissue Liver; for A/G / ALP / ALT / AST / BUN / CRE / Ca / Cl / DBIL / GLC / IP / K / LDH / Na / PL / RALB / TBIL / TC / TG / TP / gamma-GTP: tissue Plasma

SMILES: ClC(Cl)(Cl)Cl [CARBON TETRACHLORIDE]
- TERMINAL_BW (72 h, time 3 day): 223.2 g
- APTT (72 h, time 3 day): 17 s
- Bas (72 h, time 3 day): 0%
- Eos (72 h, time 3 day): 1%
- Fbg (72 h, time 3 day): 234.4 mg/dL
- Hb (72 h, time 3 day): 13.7 g/dL
- Ht (72 h, time 3 day): 40.1%
- Lym (72 h, time 3 day): 82.4%
- MCH (72 h, time 3 day): 21.8 pg
- MCHC (72 h, time 3 day): 34.2%
- MCV (72 h, time 3 day): 63.7 fL
- Mono (72 h, time 3 day): 2.8%
- Neu (72 h, time 3 day): 13%
- PT (72 h, time 3 day): 11.6 s
- Plat (72 h, time 3 day): 129.5 x10_4/uL
- RBC (72 h, time 3 day): 629.2 x10_4/ul
- Ret (72 h, time 3 day): 7.4%
- WBC (72 h, time 3 day): 96.4 x10_2/uL
- KIDNEY_L (72 h, time 3 day): 0.9 g
- KIDNEY_R (72 h, time 3 day): 1 g
- KIDNEY_TOTAL (72 h, time 3 day): 1.9 g
- LIVER (72 h, time 3 day): 10.9 g
- A/G (72 h, time 3 day): 1.5
- ALP (72 h, time 3 day): 1075.2 IU/L
- ALT (72 h, time 3 day): 44.8 IU/L
- AST (72 h, time 3 day): 71.2 IU/L
- BUN (72 h, time 3 day): 16.2 mg/dL
- CRE (72 h, time 3 day): 0.4 mg/dL
- Ca (72 h, time 3 day): 10.9 mg/dL
- Cl (72 h, time 3 day): 103 meq/L
- DBIL (72 h, time 3 day): 0.08 mg/dL
- GLC (72 h, time 3 day): 206.4 mg/dL
- IP (72 h, time 3 day): 7.5 mg/dL
- K (72 h, time 3 day): 3.9 meq/L
- LDH (72 h, time 3 day): 208.6 IU/L
- Na (72 h, time 3 day): 140 meq/L
- PL (72 h, time 3 day): 155.4 mg/dL
- RALB (72 h, time 3 day): 3.2 g/dL
- TBIL (72 h, time 3 day): 0.1 mg/dL
- TC (72 h, time 3 day): 82.4 mg/dL
- TG (72 h, time 3 day): 86.6 mg/dL
- TP (72 h, time 3 day): 5.5 g/dL
- gamma-GTP (72 h, time 3 day): 1 IU/L
- TERMINAL_BW ([…], time 7 day): 257 g
- TERMINAL_BW ([…], time 14 day): 300.9 g
- TERMINAL_BW ([…], time 28 day): 389 g
- APTT ([…], time 7 day): 18.3 s
- Bas ([…], time 7 day): 0%
- Eos ([…], time 7 day): 1%
- Fbg ([…], time 7 day): 249.4 mg/dL
- Hb ([…], time 7 day): 13.9 g/dL
- Ht ([…], time 7 day): 40.1%
- Lym ([…], time 7 day): 84.6%
- MCH ([…], time 7 day): 21.6 pg
- MCHC ([…], time 7 day): 34.8%
- MCV ([…], time 7 day): 61.9 fL
- Mono ([…], time 7 day): 2.6%
- Neu ([…], time 7 day): 11.2%
- PT ([…], time 7 day): 11.5 s
- Plat ([…], time 7 day): 129.8 x10_4/uL
- RBC ([…], time 7 day): 647.4 x10_4/ul
- Ret ([…], time 7 day): 6.1%
- WBC ([…], time 7 day): 111 x10_2/uL
- APTT ([…], time 14 day): 20.1 s
- Bas ([…], time 14 day): 0%
- Eos ([…], time 14 day): 0.8%
- Fbg ([…], time 14 day): 239 mg/dL
- Hb ([…], time 14 day): 14.6 g/dL
- Ht ([…], time 14 day): 42.9%
- Lym ([…], time 14 day): 80.8%
- MCH ([…], time 14 day): 20 pg
- MCHC ([…], time 14 day): 34%
- MCV ([…], time 14 day): 58.9 fL
- Mono ([…], time 14 day): 2.6%
- Neu ([…], time 14 day): 15%
- PT ([…], time 14 day): 11.5 s
- Plat ([…], time 14 day): 124 x10_4/uL
- RBC ([…], time 14 day): 728 x10_4/ul
- Ret ([…], time 14 day): 3.9%
- WBC ([…], time 14 day): 114.8 x10_2/uL
- APTT ([…], time 28 day): 22.7 s
- Bas ([…], time 28 day): 0%
- Eos ([…], time 28 day): 1%
- Fbg ([…], time 28 day): 227.4 mg/dL
- Hb ([…], time 28 day): 15.1 g/dL
- Ht ([…], time 28 day): 43.7%
- Lym ([…], time 28 day): 83.8%
- MCH ([…], time 28 day): 19.3 pg
- MCHC ([…], time 28 day): 34.6%
- MCV ([…], time 28 day): 55.7 fL
- Mono ([…], time 28 day): 2.6%
- Neu ([…], time 28 day): 11.8%
- PT ([…], time 28 day): 11.9 s
- Plat ([…], time 28 day): 120.7 x10_4/uL
- RBC ([…], time 28 day): 785.8 x10_4/ul
- Ret ([…], time 28 day): 2.8%
- WBC ([…], time 28 day): 121 x10_2/uL
- KIDNEY_L ([…], time 7 day): 1 g
- KIDNEY_R ([…], time 7 day): 1 g
- KIDNEY_TOTAL ([…], time 7 day): 2.1 g
- KIDNEY_L ([…], time 14 day): 1.2 g
- KIDNEY_R ([…], time 14 day): 1.1 g
- KIDNEY_TOTAL ([…], time 14 day): 2.3 g
- KIDNEY_L ([…], time 28 day): 1.3 g
- KIDNEY_R ([…], time 28 day): 1.4 g
- KIDNEY_TOTAL ([…], time 28 day): 2.7 g
- LIVER ([…], time 7 day): 12.5 g
- LIVER ([…], time 14 day): 12.6 g
- LIVER ([…], time 28 day): 16.7 g
- A/G ([…], time 7 day): 1.7
- ALP ([…], time 7 day): 922.4 IU/L
- ALT ([…], time 7 day): 34.2 IU/L
- AST ([…], time 7 day): 62.4 IU/L
- BUN ([…], time 7 day): 16.2 mg/dL
- CRE ([…], time 7 day): 0.4 mg/dL
- Ca ([…], time 7 day): 10.7 mg/dL
- Cl ([…], time 7 day): 104 meq/L
- DBIL ([…], time 7 day): 0.1 mg/dL
- GLC ([…], time 7 day): 204.2 mg/dL
- IP ([…], time 7 day): 7.4 mg/dL
- K ([…], time 7 day): 4.2 meq/L
- LDH ([…], time 7 day): 201.8 IU/L
- Na ([…], time 7 day): 139.8 meq/L
- PL ([…], time 7 day): 165.4 mg/dL
- RALB ([…], time 7 day): 3.5 g/dL
- TBIL ([…], time 7 day): 0.2 mg/dL
- TC ([…], time 7 day): 81.8 mg/dL
- TG ([…], time 7 day): 126.4 mg/dL
- TP ([…], time 7 day): 5.5 g/dL
- gamma-GTP ([…], time 7 day): 1.2 IU/L
- A/G ([…], time 14 day): 1.4
- ALP ([…], time 14 day): 813 IU/L
- ALT ([…], time 14 day): 29.8 IU/L
- AST ([…], time 14 day): 60.2 IU/L
- BUN ([…], time 14 day): 14 mg/dL
- CRE ([…], time 14 day): 0.5 mg/dL
- Ca ([…], time 14 day): 10.4 mg/dL
- Cl ([…], time 14 day): 103.8 meq/L
- DBIL ([…], time 14 day): 0.062 mg/dL
- GLC ([…], time 14 day): 215.8 mg/dL
- IP ([…], time 14 day): 7.3 mg/dL
- K ([…], time 14 day): 3.7 meq/L
- LDH ([…], time 14 day): 209.6 IU/L
- Na ([…], time 14 day): 142.4 meq/L
- PL ([…], time 14 day): 135.6 mg/dL
- RALB ([…], time 14 day): 3.5 g/dL
- TBIL ([…], time 14 day): 0.1 mg/dL
- TC ([…], time 14 day): 69 mg/dL
- TG ([…], time 14 day): 73.4 mg/dL
- TP ([…], time 14 day): 5.9 g/dL
- gamma-GTP ([…], time 14 day): 1 IU/L
- A/G ([…], time 28 day): 1.4
- ALP ([…], time 28 day): 495 IU/L
- ALT ([…], time 28 day): 31.2 IU/L
- AST ([…], time 28 day): 60.4 IU/L
- BUN ([…], time 28 day): 16.4 mg/dL
- CRE ([…], time 28 day): 0.5 mg/dL
- Ca ([…], time 28 day): 10.5 mg/dL
- Cl ([…], time 28 day): 102.2 meq/L
- DBIL ([…], time 28 day): 0.07 mg/dL
- GLC ([…], time 28 day): 238 mg/dL
- IP ([…], time 28 day): 6.9 mg/dL
- K ([…], time 28 day): 3.9 meq/L
- LDH ([…], time 28 day): 211.6 IU/L
- Na ([…], time 28 day): 140.4 meq/L
- PL ([…], time 28 day): 143.8 mg/dL
- RALB ([…], time 28 day): 3.5 g/dL
- TBIL ([…], time 28 day): 0.1 mg/dL
- TC ([…], time 28 day): 72.4 mg/dL
- TG ([…], time 28 day): 83 mg/dL
- TP ([…], time 28 day): 6 g/dL
- gamma-GTP ([…], time 28 day): 0.8 IU/L

Reference: ChEMBL document CHEMBL3885861, “Open TG-GATES”
